Measured values as given in patent publication US5498627A, “Octahydro-2-naphthalenecarboxylic acid derivative, its production and use” (Takeda Chemical Industries, Ltd., priority 1994, dated 1996).
Values after ≈ are worked out from the molar mass of the structure shown.

Key:
Farnesyltransferase = target: T1, Farnesyltransferase (Rattus norvegicus, UniProt Q02293+Q04631); assay: Farnesyltransferase-inhibitory test (FT Assay Kit, SPA); format: biochemical; details: crude enzyme from rat brains; biotin-modified human lamin B C-terminal peptide, 3H-farnesylpyrophosphate; 37° C., 1 hour; read-out: concentration inhibiting farnesyltransferase activity by 50% (converted)
T1 construct: Farnesyltransferase was prepared from rat brains; from tissue; host or cells: brain of male SD rats, 6 weeks old (Charles River); dialysed 30-50% ammonium sulfate fraction, crude enzyme solution
Description: Farnesyltransferase was prepared from rat brains according to the method of Y. Reiss et al. (Cell 62, 81 (1990)) and all of the following procedures were performed at 4° C. That is, brains were removed from SD rats (male, 6 weeks old, Charles River) and sliced with a pair of scissors. Then 50 mM tris-hydrochloric acid buffer (pH 7.5)(2 ml per brain) containing 1 mM EDTA, 1 mM EGTA, 0.2 mM phenylmethylsulfonyl fluoride and 0.1 mM leupeptin was added. The mixture was homogenized with a Teflon homogenizer (manufactured by Hamada Rika, Japan) in ice. The extract was centrifuged at 60,000×g for 70 minutes. From the resulting supernatant, the precipitate fraction from 30 to 50 W/V % concentration of ammonium sulfate was recovered, and dialyzed overnight against 20 mM tris-hydrochloric acid buffer (pH 7.5) containing 1 mM dithiothreitol and 20 μM zinc chloride. The dialysed solution was centrifuged at 15,000×g for 10 minutes. […]
Farnesyltransferase activity was determined using FT Assay Kit (manufactured by Amersham) as follows. […] The radioactivity produced by attachment of the ^3 H-farnesylated peptide to the SPA beads was measured with a scintillation counter to determine the amount of the ^3 H-farnesylated peptide. The farnesyltransferase-inhibitory activity of the compound TAN-1813 was calculated from the counts in the presence and absence of the compound TAN-1813.

[1] = system: human fibrosarcoma strain HT-1080; assay: In vivo tumor growth inhibitory test; details: 50 mg/kg subcutaneously daily for 4 days beginning 10 days after transplantation; tumor size 18 days after transplantation; HT-1080 in nude mice
Description: Cells of human fibrosarcoma strain HT-1080 (2×10^6 cells per mouse) were subcutaneously transplanted to nude mice. Three mice were used for each treated group. The compound TAN-1813 (50 mg/kg) was subcutaneously administered to the mice daily for 4 days beginning 10 days after the transplantation. Anti-tumor activity was evaluated by measuring tumor size 18 days after the transplantation of the cancer cells. Average tumor sizes of 3 mice in the untreated (C) and the compound TAN-1813-treated (T) group were measured, to determine the tumor growth inhibitory activity. The tumor size (mm^3) was calculated from the formula: 0.5×a×b^2 by measuring the major axis (mm) (a) and minor axis (mm) (b) with a calibrater.

NIH3T3/K-ras cells = assay: Cell growth-inhibitory test (MTT); format: cell-based; details: Mus musculus, NIH3T3, 72 h, 3 days incubation, read-out: concentration inhibiting the growth of NIH3T3/K-ras cells by 50%
Description: The cell growth-inhibitory activity of the compound TAN-1813 was determined according to a modified method of Mosmann (Journal of Immunological Methods 65, 55 (1983) ) by using a K-ras transformant (NIH3T3/K-ras) of mouse embryonic fibroblast strain NIH3T3. That is, NIH3T3/K-ras cells were suspended in a medium at a cell density of 3×10^4 /ml. The suspension (0.1 ml per well) was dispensed into each well of a 96-well flat-bottomed plate (manufactured by Nunc) containing a solution (10 μl) of varying concentrations of the compound TAN-1813 dissolved in phosphate-buffered saline (PBS). The medium was Dulbecco modified Eagle's minimum essential medium (Whittaker Bioproducts, U.S.A.) containing 10 V/V % fetal calf serum (FCS, Whittaker Bioproducts, U.S.A.). The above plate was incubated for 3 days at 37° C. and 5% CO2. Then, 25 μl of tetrazolium salt MTT (Sigma, U.S.A.) solution (5 mg/ml) dissolved in PBS was added to each well. After incubation for 4 hours, 0.1 ml of 10% SDS solution dissolved in 0.01N hydrochloric acid was added to each well, and the plate was incubated overnight at 37° C. and 5% CO2. Absorbance at 620 nm was measured using Titertek Multiscan Spectrophotometer (Flow, U.S.A.). The growth inhibitory activity (%) was calculated from the absorbance values in the presence and absence of the compound TAN-1813.

Solubility = format: physicochemical

IC50 (Farnesyltransferase): 26.2 µM
Solubility (Solubility; in methanol, ethyl acetate, chloroform, and dimethyl sulfoxide): Readily soluble
Solubility (Solubility; in water, and hexane): Slightly soluble
SMILES: C=CC(CCCCC)C1=C(C(=O)C2C(C)C=CC3(O)CC(C(=O)O)CC(C)C23)C(=O)NC1=O (centres unmarked) [TAN-1813, 5-[2,5-dihydro-4-(1-octen-3-yl)-2,5-dioxo-1H-pyrrole-3-carbonyl]-8a-hydroxy-4,6-dimethyl-1,2,3,4,4a,5,6,8a-octahydro-2-naphthalenecarboxylic acid]
tumor size ratio (T/C×100) [1]: 46%
IC50 (NIH3T3/K-ras cells): 0.4 µg/mL (≈ 0.874 µM)
